# Laboratory results from US20190152962A1, “CYCLOPROPYL DERIVATIVES AS ROR-GAMMA MODULATORS” (CADILA HEALTHCARE LIMITED, priority 2016, published 2019).
# Key:
# [1] = test system: secreted IL-17 in peripheral blood mononuclear cells (PBMCs); test: Human IL-17 inhibition assay; type: cell-based; settings: PBMC, anti-CD3/anti-CD28, 72 h, read-out: IL17 IC50
# Protocol: Peripheral blood mononuclear cells (PBMCs) were isolated from healthy volunteers and subjected to T cell polarization assay. Two million PBMCs were placed on anti-CD3 (Biolegend, US) coated 96-well plates and 1 μg/mL of anti-CD28 (Biolegend, US) was added along with RORγt inhibitors or the vehicle control and incubated at 37° C. and 5% CO2 for 72 h. At the end of incubation time, the supernatant was collected and analyzed for secreted IL-17 using sandwich enzyme immunoassay (Mabtech AB, Sweden). The results were analyzed using Graphpad Prism and the half-maximal inhibitory concentrations (IC50) of the test compounds were derived (Table 4).
# full length human RORγt = molecular target: T1, full length human RORγt (Homo sapiens, UniProt P51449); test: 5×RORE based luciferase assay; type: cell-based; settings: COS-7 cells transfected with 5×RORE-Luc and hRORγt, 18-20 h treatment
# T1 construct: full length human RORγt together in COS-7 cells; expressed in transfected cells; host or cells: COS-7
# T1 sequence (P51449 1-497 isoform P51449-2): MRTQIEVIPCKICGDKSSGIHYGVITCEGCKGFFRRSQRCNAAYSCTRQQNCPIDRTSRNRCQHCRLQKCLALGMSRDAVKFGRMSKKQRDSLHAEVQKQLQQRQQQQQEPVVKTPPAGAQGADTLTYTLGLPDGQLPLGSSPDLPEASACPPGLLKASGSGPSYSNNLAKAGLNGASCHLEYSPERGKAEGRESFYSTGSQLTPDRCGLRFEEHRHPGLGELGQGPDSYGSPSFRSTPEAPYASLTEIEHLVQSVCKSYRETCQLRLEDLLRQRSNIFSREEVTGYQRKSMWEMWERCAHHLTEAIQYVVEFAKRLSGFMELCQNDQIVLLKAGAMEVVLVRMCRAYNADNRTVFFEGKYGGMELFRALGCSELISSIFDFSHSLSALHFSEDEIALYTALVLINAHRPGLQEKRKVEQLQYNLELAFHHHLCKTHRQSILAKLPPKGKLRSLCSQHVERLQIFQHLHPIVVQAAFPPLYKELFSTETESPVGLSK
# Protocol: Human RORγt (hRORγt) inhibitors were screened in RORE (RORγt Response Element) based Luciferase assay by transient transfection of 5×RORE (5 tandem repeats of RORγt Response Element) and full length human RORγt together in COS-7 cells. COS-7 cells were maintained as monolayer in complete DMEM (High Glucose) medium in presence of 2 mM Glutamin and 1× Sodium Pyruvate. Day before transfection, 15000 cells were seeded in 96 well cell culture plate in 100 μl antibiotic free medium and incubated at 37° C. in 5% CO2 containing humidified chamber O/N. Prior to transfection, cells were fed with fresh complete growth medium and incubated until the addition of transfection complex. Transfection complex for the required numbers of wells were prepared from pGL2-promoter-5×RORE-Luc plasmid, pcDNA3.1 (+)-hRORγt expression plasmid, pβ-GAL plasmid (transfection control), and Lipofectamine 3000 (Invitrogen). 50 μl of transfection complex were added in 100 μl of complete medium to respective wells, mixed gently and plate was incubated for 5-6 h at 37° C. in 5% CO2 containing humidified chamber. After 5 h of transfection, content of the wells were aspirated and cells were treated with increasing concentration of RORγt inverse agonist in medium devoid of serum with a final DMSO concentration of 0.2% for 18-20 h at 37° C. in 5% CO2 containing humidified chamber. Next day, cells were lysed and the lysates were assayed for luciferase and β-GAL activity using Promega's luciferase assay system and an in-house made β-GAL assay buffer respectively. Luciferase signals were normalized with β-GAL and % activity was determined with respect to that of 10 nM control ligand.
# IC50 of selected compounds were then determined by nonlinear regression analysis of % activity, plotted against compound concentration (Table 4).
IC50 (full length human RORγt) [nM],SMILES,IC50 [1] [nM]
–,"CCS(=O)(=O)c1ccc(CC(=O)Nc2cc(Cl)c(C3(c4noc(-c5ccc(F)cc5)n4)CC3)c(Cl)c2)cc1 [Example 1, N-(3,5-dichloro-4-(1-(5-(4-fluorophenyl)-1,2,4-oxadiazol-3-yl)cyclopropyl)phenyl)-2-(4-(ethylsulfonyl)phenyl)acetamide]",6.6
7,"CCS(=O)(=O)c1ccc(CC(=O)Nc2cc(Cl)c(C3(c4noc(-c5ccccc5)n4)CC3)c(Cl)c2)cc1 [Example 2, N-(3,5-dichloro-4-(1-(5-phenyl-1,2,4-oxadiazol-3-yl)cyclopropyl)phenyl)-2-(4-(ethylsulfonyl)phenyl)acetamide]",25
8.5,"CCS(=O)(=O)c1ccc(CC(=O)Nc2cc(Cl)c(C3(c4noc(-c5ccc(C(F)(F)F)cc5)n4)CC3)c(Cl)c2)cc1 [Example 3, N-(3,5-dichloro-4-(1-(5-(4-(trifluoromethyl)phenyl)-1,2,4-oxadiazol-3-yl)cyclopropyl)phenyl)-2-(4-(ethylsulfonyl)phenyl)acetamide]",38.3
1.46,"CCS(=O)(=O)c1ccc(CC(=O)Nc2cc(Cl)c(C3(c4noc(-c5ccc(C)cc5)n4)CC3)c(Cl)c2)cc1 [Example 4, N-(3,5-dichloro-4-(1-(5-(p-tolyl)-1,2,4-oxadiazol-3-yl)cyclopropyl)phenyl)-2-(4-(ethylsulfonyl)phenyl)acetamide]",15
5.6,"CCS(=O)(=O)c1ccc(CC(=O)Nc2cc(Cl)c(C3(c4noc(-c5ccc(F)c(F)c5)n4)CC3)c(Cl)c2)cc1 [Example 5, N-(3,5-dichloro-4-(1-(5-(3,4-difluorophenyl)-1,2,4-oxadiazol-3-yl)cyclopropyl)phenyl)-2-(4-(ethylsulfonyl)phenyl)acetamide]",17
3.4,"CCS(=O)(=O)c1ccc(CC(=O)Nc2cc(Cl)c(C3(c4noc(-c5cccc(F)c5)n4)CC3)c(Cl)c2)cc1 [Example 6, N-(3,5-dichloro-4-(1-(5-(3-fluorophenyl)-1,2,4-oxadiazol-3-yl)cyclopropyl)phenyl)-2-(4-(ethylsulfonyl)phenyl)acetamide]",35
8.7,"CCS(=O)(=O)c1ccc(CC(=O)Nc2cc(Cl)c(C3(c4noc(-c5ccc(F)cc5F)n4)CC3)c(Cl)c2)cc1 [Example 7, N-(3,5-dichloro-4-(1-(5-(2,4-difluorophenyl)-1,2,4-oxadiazol-3-yl)cyclopropyl)phenyl)-2-(4-(ethylsulfonyl)phenyl)acetamide]",10.4
11,"CCS(=O)(=O)c1ccc(CC(=O)Nc2cc(Cl)c(C3(c4noc(-c5c(F)cc(F)cc5F)n4)CC3)c(Cl)c2)cc1 [Example 8, N-(3,5-dichloro-4-(1-(5-(2,4,6-trifluorophenyl)-1,2,4-oxadiazol-3-yl)cyclopropyl)phenyl)-2-(4-(ethylsulfonyl)phenyl)acetamide]",2.7
8.9,"CCS(=O)(=O)c1ccc(CC(=O)Nc2cc(Cl)c(C3(c4noc(-c5ccc(F)cc5Cl)n4)CC3)c(Cl)c2)cc1 [Example 9, N-(3,5-dichloro-4-(1-(5-(2-chloro-4-fluorophenyl)-1,2,4-oxadiazol-3-yl)cyclopropyl)phenyl)-2-(4-(ethylsulfonyl)phenyl)acetamide]",9.2
6.8,"CCS(=O)(=O)c1ccc(CC(=O)Nc2cc(Cl)c(C3(c4noc(-c5ccc(F)c(Cl)c5)n4)CC3)c(Cl)c2)cc1 [Example 10, N-(3,5-dichloro-4-(1-(5-(3-chloro-4-fluorophenyl)-1,2,4-oxadiazol-3-yl)cyclopropyl)phenyl)-2-(4-(ethylsulfonyl)phenyl)acetamide]",9.4
15.9,"CCS(=O)(=O)c1ccc(CC(=O)Nc2cc(Cl)c(C3(c4noc(-c5ccc(Cl)c(Cl)c5)n4)CC3)c(Cl)c2)cc1 [Example 11, N-(3,5-dichloro-4-(1-(5-(3,4-dichlorophenyl)-1,2,4-oxadiazol-3-yl)cyclopropyl)phenyl)-2-(4-(ethylsulfonyl)phenyl)acetamide]",14.7
5.9,"CCS(=O)(=O)c1ccc(CC(=O)Nc2cc(Cl)c(C3(c4noc(-c5ccc(Cl)cc5Cl)n4)CC3)c(Cl)c2)cc1 [Example 12, N-(3,5-dichloro-4-(1-(5-(2,4-dichlorophenyl)-1,2,4-oxadiazol-3-yl)cyclopropyl)phenyl)-2-(4-(ethylsulfonyl)phenyl)acetamide]",10.6
8.9,"CCS(=O)(=O)c1ccc(CC(=O)Nc2cc(Cl)c(C3(c4noc(-c5ccc(Cl)cc5)n4)CC3)c(Cl)c2)cc1 [Example 13, N-(3,5-dichloro-4-(1-(5-(4-chlorophenyl)-1,2,4-oxadiazol-3-yl)cyclopropyl)phenyl)-2-(4-(ethylsulfonyl)phenyl)acetamide]",27.2
1.3,"CCS(=O)(=O)c1ccc(CC(=O)Nc2cc(Cl)c(C3(c4noc(-c5ccc(C#N)cc5)n4)CC3)c(Cl)c2)cc1 [Example 14, N-(3,5-dichloro-4-(1-(5-(4-cyanophenyl)-1,2,4-oxadiazol-3-yl)cyclopropyl)phenyl)-2-(4-(ethylsulfonyl)phenyl)acetamide]",9.5
5.7,"CCS(=O)(=O)c1ccc(CC(=O)Nc2cc(Cl)c(C3(c4noc(-c5ccc(OC)cc5F)n4)CC3)c(Cl)c2)cc1 [Example 15, N-(3,5-dichloro-4-(1-(5-(2-fluoro-4-methoxyphenyl)-1,2,4-oxadiazol-3-yl)cyclopropyl)phenyl)-2-(4-(ethylsulfonyl)phenyl)acetamide]",27
0.9,"CCS(=O)(=O)c1ccc(CC(=O)Nc2cc(Cl)c(C3(c4noc(-c5cccs5)n4)CC3)c(Cl)c2)cc1 [Example 16, N-(3,5-dichloro-4-(1-(5-(thiophen-2-yl)-1,2,4-oxadiazol-3-yl)cyclopropyl)phenyl)-2-(4-(ethylsulfonyl)phenyl)acetamide]",42
1.9,"CCS(=O)(=O)c1ccc(CC(=O)Nc2cc(Cl)c(C3(c4noc(-c5ccc(Cl)s5)n4)CC3)c(Cl)c2)cc1 [Example 17, N-(3,5-dichloro-4-(1-(5-(5-chlorothiophen-2-yl)-1,2,4-oxadiazol-3-yl)cyclopropyl)phenyl)-2-(4-(ethylsulfonyl)phenyl)acetamide]",6
3.9,"CCS(=O)(=O)c1ccc(CC(=O)Nc2cc(Cl)c(C3(c4noc(-c5ccc(C)s5)n4)CC3)c(Cl)c2)cc1 [Example 18, N-(3,5-dichloro-4-(1-(5-(5-methylthiophen-2-yl)-1,2,4-oxadiazol-3-yl)cyclopropyl)phenyl)-2-(4-(ethylsulfonyl)phenyl)acetamide]",23.7
1.58,"CCS(=O)(=O)c1ccc(CC(=O)Nc2cc(Cl)c(C3(c4noc(-c5cccnc5)n4)CC3)c(Cl)c2)cc1 [Example 19, N-(3,5-dichloro-4-(1-(5-(pyridin-3-yl)-1,2,4-oxadiazol-3-yl)cyclopropyl)phenyl)-2-(4-(ethylsulfonyl)phenyl)acetamide]",27
15.8,"CCS(=O)(=O)c1ccc(CC(=O)Nc2cc(Cl)c(C3(c4noc(-c5ccc(OC)nc5)n4)CC3)c(Cl)c2)cc1 [Example 20, N-(3,5-dichloro-4-(1-(5-(6-methoxypyridin-3-yl)-1,2,4-oxadiazol-3-yl)cyclopropyl)phenyl)-2-(4-(ethylsulfonyl)phenyl)acetamide]",11.3
1.4,"CCS(=O)(=O)c1ccc(CC(=O)Nc2cc(Cl)c(C3(c4noc(C(C)C)n4)CC3)c(Cl)c2)cc1 [Example 23, N-(3,5-dichloro-4-(1-(5-isopropyl-1,2,4-oxadiazol-3-yl)cyclopropyl)phenyl)-2-(4-(ethylsulfonyl)phenyl)acetamide]",21
